pIC50: −log10 of the molar value. Counter-ions that a name gives are not always drawn.

T1 sequence (P49327 whole entry): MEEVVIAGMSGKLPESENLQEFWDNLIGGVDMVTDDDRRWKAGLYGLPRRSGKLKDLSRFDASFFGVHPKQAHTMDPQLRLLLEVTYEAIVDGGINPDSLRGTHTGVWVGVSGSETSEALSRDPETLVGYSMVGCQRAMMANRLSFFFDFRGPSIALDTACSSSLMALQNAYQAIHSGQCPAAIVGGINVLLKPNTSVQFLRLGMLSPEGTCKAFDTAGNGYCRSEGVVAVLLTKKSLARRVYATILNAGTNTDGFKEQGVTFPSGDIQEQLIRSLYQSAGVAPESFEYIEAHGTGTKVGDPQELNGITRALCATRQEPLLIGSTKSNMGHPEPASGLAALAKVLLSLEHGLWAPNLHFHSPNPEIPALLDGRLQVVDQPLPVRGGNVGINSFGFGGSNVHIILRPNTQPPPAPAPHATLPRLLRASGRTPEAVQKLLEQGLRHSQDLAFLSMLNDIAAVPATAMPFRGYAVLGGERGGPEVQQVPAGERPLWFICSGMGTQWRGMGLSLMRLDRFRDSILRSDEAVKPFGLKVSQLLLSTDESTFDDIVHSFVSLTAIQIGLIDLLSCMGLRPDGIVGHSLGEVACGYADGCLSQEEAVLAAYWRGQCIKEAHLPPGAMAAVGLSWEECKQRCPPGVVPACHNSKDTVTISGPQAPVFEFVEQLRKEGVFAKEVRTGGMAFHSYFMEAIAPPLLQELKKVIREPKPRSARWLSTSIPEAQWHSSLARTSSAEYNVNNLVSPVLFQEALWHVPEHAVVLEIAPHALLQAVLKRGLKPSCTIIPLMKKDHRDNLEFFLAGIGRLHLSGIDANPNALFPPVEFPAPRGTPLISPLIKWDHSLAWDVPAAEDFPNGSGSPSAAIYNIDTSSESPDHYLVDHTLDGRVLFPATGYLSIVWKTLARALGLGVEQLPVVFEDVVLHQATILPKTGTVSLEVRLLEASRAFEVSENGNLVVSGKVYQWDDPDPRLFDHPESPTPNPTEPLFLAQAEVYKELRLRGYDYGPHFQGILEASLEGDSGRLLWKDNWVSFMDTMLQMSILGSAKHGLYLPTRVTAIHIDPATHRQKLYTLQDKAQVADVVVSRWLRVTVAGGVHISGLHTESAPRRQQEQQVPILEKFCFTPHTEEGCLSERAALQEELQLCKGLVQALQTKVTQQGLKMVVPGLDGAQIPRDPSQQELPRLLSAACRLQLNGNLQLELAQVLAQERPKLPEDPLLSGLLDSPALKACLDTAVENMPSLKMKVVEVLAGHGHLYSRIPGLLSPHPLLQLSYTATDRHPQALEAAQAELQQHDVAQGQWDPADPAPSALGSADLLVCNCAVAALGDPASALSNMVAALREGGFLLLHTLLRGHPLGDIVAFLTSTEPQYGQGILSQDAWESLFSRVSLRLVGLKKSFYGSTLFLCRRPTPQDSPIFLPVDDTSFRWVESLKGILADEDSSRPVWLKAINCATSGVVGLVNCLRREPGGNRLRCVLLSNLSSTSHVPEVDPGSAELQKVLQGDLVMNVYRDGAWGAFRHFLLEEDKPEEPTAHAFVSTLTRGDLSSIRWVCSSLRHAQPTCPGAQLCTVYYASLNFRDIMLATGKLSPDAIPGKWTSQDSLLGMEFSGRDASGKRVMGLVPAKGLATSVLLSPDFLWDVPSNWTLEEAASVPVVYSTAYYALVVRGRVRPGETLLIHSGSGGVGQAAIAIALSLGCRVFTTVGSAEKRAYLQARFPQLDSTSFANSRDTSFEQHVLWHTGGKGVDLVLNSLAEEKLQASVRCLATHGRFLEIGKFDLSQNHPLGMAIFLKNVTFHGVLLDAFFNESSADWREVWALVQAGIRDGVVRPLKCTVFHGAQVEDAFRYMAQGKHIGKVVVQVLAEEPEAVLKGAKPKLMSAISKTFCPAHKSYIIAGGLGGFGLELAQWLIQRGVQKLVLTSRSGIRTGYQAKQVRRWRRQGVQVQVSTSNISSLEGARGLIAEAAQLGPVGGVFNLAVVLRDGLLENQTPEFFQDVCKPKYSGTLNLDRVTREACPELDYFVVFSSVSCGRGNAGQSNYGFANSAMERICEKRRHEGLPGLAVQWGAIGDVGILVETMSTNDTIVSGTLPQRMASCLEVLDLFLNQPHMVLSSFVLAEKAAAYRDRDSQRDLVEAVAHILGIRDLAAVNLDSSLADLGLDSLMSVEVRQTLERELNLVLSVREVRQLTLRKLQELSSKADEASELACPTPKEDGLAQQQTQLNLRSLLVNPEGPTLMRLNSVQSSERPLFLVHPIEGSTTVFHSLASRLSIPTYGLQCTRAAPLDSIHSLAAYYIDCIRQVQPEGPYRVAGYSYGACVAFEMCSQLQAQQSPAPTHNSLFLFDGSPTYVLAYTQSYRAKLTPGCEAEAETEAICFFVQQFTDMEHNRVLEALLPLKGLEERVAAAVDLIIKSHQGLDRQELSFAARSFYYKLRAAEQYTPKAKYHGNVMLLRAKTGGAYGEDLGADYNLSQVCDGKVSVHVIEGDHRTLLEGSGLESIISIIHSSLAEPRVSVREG

The first test has as its target T1, recombinant human baculovirus-expressed GST-tagged FASN (Homo sapiens, UniProt P49327).
T1 construct: GST
Description: FASN enzyme activity assay, fluorescence-based detection of CoA with CPM. The test is classed as biochemical. The settings on record: 5 nM FASN, 150 μM NADPH, 10 μM acetyl-CoA, 25 μM malonyl-CoA, 90 minutes incubation; read-out: IC50 data for Additional Compounds of Formulae I-V(a): Activity. In outline: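 Human GST-tagged FASN, baculovirus-expressed (5 nM), in 50 mM HEPES pH 7.5 with 150 μM NADPH, 10 μM acetyl-CoA, 25 μM malonyl-CoA, 0.5% DMSO; malonyl-CoA-started, 90 min. Released CoA detected with CPM (50 μM dilution), 30 min, fluorescence ex 390/em 530. IC50 from variable-slope sigmoidal fit of % inhibition versus log concentration.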
Take `Cc1c(-c2ccc(OC3CCN(C(=O)[C@@H]4CCCN4)CC3)cc2)ccc2cccnc12` [Example 621, [4-[4-(8-Methyl-7-quinolyl)phenoxy]-1-piperidyl]-[(2S)-pyrrolidin-2-yl]-methanone]: the pIC50 is 5.00 to 6.00.

With `Cc1c(-c2ccc(OC3CCN(C(=O)NCCN4CCCC4)CC3)cc2)ccc2cccnc12` [Example 530, 4-[4-(8-Methyl-7-quinolyl)phenoxy]-N-(2-pyrrolidin-1-ylethyl)piperidine-1-carboxamide HCl], the pIC50 was 7.00 to 9.00.

The same test, now with this note: 5 nM FASN, 150 μM NADPH, 10 μM acetyl-CoA, 25 μM malonyl-CoA, 90 minutes incubation; read-out: IC50 data for Compounds of Formulae I-V/V(a): Activity.
For the compound `N#Cc1ccc(-c2ccc(OC3CCN(C(=O)[C@H]4CCCO4)CC3)cc2)cc1` [Example 244, 4′-[1-((R)-Tetrahydrofuran-2-carbonyl)-piperidin-4-yloxy]-biphenyl-4-carbonitrile], the pIC50 is 7.00 to 9.00.

In the case of `O=C(C1CC1)N1CCC(Oc2ccc(-c3ccc4cccnc4c3Cl)cc2)CC1` [Example 59, {4-[4-(8-Chloroquinolin-7-yl)-phenoxy]-piperidin-1-yl}-cyclopropyl-methanone], the pIC50 is 7.00 to 9.00.

In the case of `CN1CCN(c2c(-c3ccc(OC4CCN(C(=O)[C@H]5CCCO5)CC4)cc3)ccc3cccnc23)CC1` [Example 323, [4-[4-[8-(4-Methylpiperazin-1-yl)-7-quinolyl]phenoxy]-1-piperidyl]-[(2R)-tetrahydrofuran-2-yl]methanone], the pIC50 is 5.00 to 6.00.

Turning to `CN1CCN(CCOc2c(-c3ccc(OC4CCN(C(=O)[C@H]5CCCO5)CC4)cc3)ccc3cccnc23)CC1` [Example 185, [4-[4-[8-[2-(4-Methylpiperazin-1-yl)ethoxy]-7-quinolyl]phenoxy]-1-piperidyl]-[(2R)-tetrahydrofuran-2-yl]methanone, HCl], the pIC50 is 6.00 to 7.00.

Take `O=C(C1OCCO1)N1CCC(Oc2ccc(-c3cnc4ccccc4c3)cc2)CC1` [Example 152, HCl]: the pIC50 was 7.00 to 9.00.

`CCC(=O)N1CCC(Oc2ccc(-c3cnc4ccccc4c3)cn2)CC1` [Example 132, 1-[4-(5-Quinolin-3-yl-pyridin-2-yloxy)-piperidin-1-yl]-propan-1-one, HCl]: the pIC50 was 5.00 to 6.00.

For `Cc1c(-c2ccc(OC3CCN(C(=O)C4(C)CC4)CC3)cc2)ccc2cccnc12` [Example 320, (1-Methylcyclopropyl)-{4-[4-(8-methyl-quinolin-7-yl)-phenoxy]-piperidin-1-yl}-methanone], the pIC50 is 7.00 to 9.00.

In the case of `Cc1ccc2ccc(-c3ccc(OC4CCN(C(=O)C5CCC5)CC4)cc3)c(F)c2n1` [Example 27, Cyclobutyl-{4-[4-(8-fluoro-2-methylquinolin-7-yl)-phenoxy]-piperidin-1-yl}-methanone], the pIC50 is 5.00 to 6.00.

On to `O=C(C1CCC1)N1CCC(Oc2ccc(-c3cccc(-c4ccccn4)c3F)cc2)CC1` [Example 398, Cyclobutyl-[4-(2′-fluoro-3′-pyridin-2-yl-biphenyl-4-yloxy)-piperidin-1-yl]-methanone HCl], for which the pIC50 is 5.00 to 6.00.

Take `CC(C)C(=O)N1CCC(Oc2cc(F)c(-c3cnc4ccccc4c3)cc2F)CC1` [Example 216, 1-[4-(2,5-Difluoro-4-quinolin-3-yl-phenoxy)-piperidin-1-yl]-2-methyl-propan-1-one]: the pIC50 was 5.00 to 6.00.

As for `CN1CCN(c2c(-c3ccc(OC4CCN(C(=O)[C@H]5CCCO5)CC4)cc3)cnc3ccccc23)CC1` [Example 240, (4-{4-[4-(4-Methylpiperazin-1-yl)-quinolin-3-yl]-phenoxy}-piperidin-1-yl)-(R)-tetrahydrofuran-2-yl-methanone], the pIC50 is 5.00 to 6.00.

Take `O=C(C1CCC1)N1CCC(Oc2ccc(-c3cnc4cccc(F)c4c3)cc2)CC1` [Example 31, Cyclobutyl-{4-[4-(5-fluoroquinolin-3-yl)-phenoxy]-piperidin-1-yl}-methanone]: the pIC50 is 7.00 to 9.00.

In the case of `CCC(=O)N1CCC(Sc2ccc(-c3cncc4ccccc34)cc2)CC1` [Example 519, 1-(4-((4-(Isoquinolin-4-yl)phenyl)thio)piperidin-1-yl)propan-1-one, HCl], the pIC50 is 5.00 to 6.00.

Consider `O=C(C1CC1)N1CCC(Oc2ccc(-c3ccc4cccnc4c3OCCCN3CCCC3)cc2)CC1` [Example 176, Cyclopropyl-(4-{4-[8-(3-pyrrolidin-1-yl-propoxy)-quinolin-7-yl]-phenoxy}-piperidin-1-yl)-methanone, HCl], for which the pIC50 was 5.00 to 6.00.

In the case of `CONC(=O)N1CCC(Oc2ccc(-c3cnc4ccccc4c3C)cc2)CC1` [Example 82, 4-[4-(4-Methylquinolin-3-yl)-phenoxy]-piperidine-1-carboxylic acid methoxyamide], the pIC50 is 7.00 to 9.00.

On to `CCC(=O)N1CCC(Oc2ccc(-c3ccc4ccccc4c3)cc2)CC1` [Example 10, 1-[4-(4-Naphthalen-2-yl-phenoxy)-piperidin-1-yl]-propan-1-one], for which the pIC50 was 7.00 to 9.00.

As to `CCC(=O)N1CCC(Oc2ccc(-c3cnc4cccc(F)c4c3)cc2)CC1` [Example 29, 1-{4-[4-(5-Fluoroquinolin-3-yl)-phenoxy]-piperidin-1-yl}-propan-1-one], the pIC50 was 7.00 to 9.00.

Regarding `Cc1c(-c2ccc(OC3CCN(C(=O)C4CC4)CC3)cc2)cccc1-c1ccccn1` [Example 407, Cyclopropyl-[4-(2′-methyl-3′-pyridin-2-yl-biphenyl-4-yloxy)-piperidin-1-yl]-methanone, TFA salt], the pIC50 was 5.00 to 6.00.

With `O=C(C1CCC1)N1CCC(Oc2ccc(-c3cnc4ccccc4c3)cc2)CC1` [Example 101, Cyclobutyl-[4-(4-quinolin-3-yl-phenoxy)-piperidin-1-yl]-methanone,HCl], the pIC50 is 7.00 to 9.00.

As for `CCC(=O)N1CCC(Oc2ccc(-c3cnc4ccc(OC)cc4c3)cc2)CC1` [Example 53, 1-{4-[4-(6-Methoxyquinolin-3-yl)-phenoxy]-piperidin-1-yl}-propan-1-one], the pIC50 is 5.00 to 6.00.

As to `COc1c(-c2ccc(OC3CCN(C(=O)N4CCCO4)CC3)cc2)ccc2cccnc12` [Example 79, Isoxazolidin-2-yl-{4-[4-(8-methoxyquinolin-7-yl)-phenoxy]-piperidin-1-yl}-methanone], the pIC50 is 7.00 to 9.00.

As for `CCC(=O)N1CCC(Oc2ccc(-c3cnc4ccccc4c3)cc2)CC1` [Example 2, 1-[4-(4-Quinolin-3-yl-phenoxy)-piperidin-1-yl]-propan-1-one], the pIC50 is 7.00 to 9.00.

`CCC(=O)N1CCC(Oc2ccc(-c3cnc4ccccc4n3)cc2)CC1` [Example 66, 1-[4-(4-Quinoxalin-2-yl-phenoxy)-piperidin-1-yl]-propan-1-one]: the pIC50 was 6.00 to 7.00.

On to `O=C(c1ccco1)N1CCC(Oc2ccc(-c3cnc4ccccc4c3)cc2)CC1` [Example 111, HCl], for which the pIC50 was 5.00 to 6.00.

As for `CCC(=O)N1CCC(Oc2ccc(-c3cnc4cc(OC)c(OC)cc4c3)cc2)CC1` [Example 55, 1-{4-[4-(6,7-Dimethoxyquinolin-3-yl)-phenoxy]-piperidin-1-yl}-propan-1-one], the pIC50 was 5.00 to 6.00.

Consider `N#Cc1ccc(-c2ccc(OC3CCN(C(=O)C4CC4)CC3)cc2)cc1` [Example 495, 4′-(1-Cyclopropanecarbonyl-piperidin-4-yloxy)-biphenyl-4-carbonitrile], for which the pIC50 was 6.00 to 7.00.

On to `O=C(C1CCOC1)N1CCC(Oc2ccc(-c3cnc4ccccc4c3)cc2)CC1` (stereo not drawn) [Example 107, [4-(4-Quinolin-3-yl-phenoxyl)-piperidin-1-yl]-(tetrahydrofuran-3-yl)-methanone, 2HCl], for which the pIC50 was 5.00 to 6.00.

As for `Cc1c(-c2ccc(OC3CCN(C(=O)C4CCC4)CC3)cc2)cnc2ccccc12` [Example 62, Cyclobutyl-{4-[4-(4-methylquinolin-3-yl)-phenoxy]-piperidin-1-yl}-methanone], the pIC50 was 7.00 to 9.00.

On to `CC(=O)N1CCC(Oc2ccc(-c3cnc4ccccc4c3)cc2)CC1` [Example 112, 1-[4-(4-Quinolin-3-yl-phenoxy)-piperidin-1-yl]-ethanone, HCl], for which the pIC50 is 6.00 to 7.00.

Consider `Cc1c(-c2ccc(OC3CCN(C(=O)C4CC(F)(F)CO4)CC3)cc2)ccc2cccnc12` (stereo not drawn) [Example 164], for which the pIC50 is 6.00 to 7.00.

On to `O=C(N1CCC(Oc2ccc(-c3ccn4cnnc4c3)cc2)CC1)C1(O)CC1` [Example 306, (1-Hydroxycyclopropyl)-[4-(4-[1,2,4]triazolo[4,3-a]pyridin-7-yl-phenoxy)-piperidin-1-yl]-methanone], for which the pIC50 was 5.00 to 6.00.

Regarding `CCC(=O)N1CCC(Oc2ccc(-c3ccc4cnc(N)cc4c3)cc2)CC1` [Example 422, 1-{4-[4-(3-Aminoisoquinolin-6-yl)-phenoxy]-piperidin-1-yl}-propan-1-one], the pIC50 is 6.00 to 7.00.

As to `Cc1cncc2cc(-c3ccc(OC4CCN(C(=O)[C@H]5CCCO5)CC4)cc3)ccc12` [Example 459, {4-[4-(4-Methylisoquinolin-6-yl)-phenoxy]-piperidin-1-yl}-(R)-tetrahydrofuran-2-yl-methanone, HCl], the pIC50 was 7.00 to 9.00.

As for `CC(C)C(=O)N1CCC(Oc2ccc(-c3cncc(-c4ccccc4)c3)cc2)CC1` [Example 383], the pIC50 was 5.00 to 6.00.

`CCC(=O)N1CCC(Oc2ccc(-c3cc(F)cc(OCc4ccccc4)c3)cc2)CC1` [Example 506, 1-[4-(5′-Benzyloxy-3′-fluorobiphenyl-4-yloxy)-piperidin-1-yl]-propan-1-one]: the pIC50 was 5.00 to 6.00.

As to `CCNC(=O)N1CCC(Oc2ccc(-c3ccc4cccnc4c3C)cc2)CC1` [Example 88, N-ethyl-4-[4-(8-methyl-7-quinolyl)phenoxy]piperidine-1-carboxamide], the pIC50 is 7.00 to 9.00.

For the compound `Cc1c(-c2ccc(OC3CCN(C(=O)N4CCCO4)CC3)cc2)ccc2cccnc12` [Example 75, Isoxazolidin-2-yl-{4-[4-(8-methyl-quinolin-7-yl)-phenoxy]-piperidin-1-yl}-methanone], the pIC50 was 7.00 to 9.00.

Values taken from patent publication US9902696B2, “1,4-substituted piperidine derivatives” (Cephalon, Inc., priority 2015, dated 2018).
